Columns and labels:
BFU-E = BFU-E cultured from cord blood; format: cell-based, human
Procedure: (§1) Erythroid burst-forming units (BFU-E) (erythroid progenitors) and colony-forming units granulocyte-macrophage (CFU-GM) (myeloid colonies) were cultured in semi-solid or in two-phase suspension media, with or without hematopoietic growth factors at high levels (e.g., erythropoietin at 3 U/ml) or reduced levels (BFU-E cell proliferation was evaluated by enumeration in colonies developing in the presence of reduced amounts of erythropoietin (0.5 U/ml) rather than 3 U (or 3000 mU)/ml, which is standard for these experimental systems), from cord blood or the peripheral blood of several types of humans. Experiments were carried out on samples derived from 1) β-thalassemia patients who expressed variable levels of fetal globin at baseline (and in untreated control cultures) and represent a variety of potential individual responses, 2) from normal umbilical cord blood samples, which express 40-50% fetal globin at baseline (and in untreated control cultures), 3) from CD34+ cells isolated from normal adult peripheral blood, which expressed low levels of fetal globin in untreated control cultures and at baseline; and 4) from peripheral blood of patients with sickle cell disease who were receiving treatment with hydroxyurea. These biological samples provide a range of potential difficulty in stimulating fetal globin expression in human patients.
In a related study, BFU-E cultured from cord blood, was tested with or without compound M, P, R, T, W, Y, Z, AI, F, or 3-(5-chlorothien-3-yl)acrylic acid.

[1] = system: cells expressing fetal globin (F-cells); experiment: Experiment 1: proportion of F-cells in hematopoietic colonies by FACScan; format: cell-based, human; details: same low concentrations as for fetal globin mRNA induction
Procedure: as §1
Hematopoietic colonies were enumerated with or without (+/−) the test compounds, and compared to colonies which developed in the presence of hematopoietic growth factors alone from the same subject (untreated control colonies), and proportions of cells expressing fetal globin (F-cells) were analyzed by FACScan analysis.

γ globin promoter = experiment: β/γ-globin promoter driven reporter gene assay; format: cell-based; details: Table 2
[2] = system: Erythroid colonies (BFU-E); experiment: Experiment 2: erythroid colonies (BFU-E) cultured from patients with beta thalassemia; format: cell-based, human; details: optimal panel of growth factors
Procedure: as §1
Erythroid colonies were cultured from patients with beta thalassemia, either without any test compounds (Control), only an optimal panel of hematopoietic growth factors, or with one of the test compounds M, P, T, 2-methyl-1-benzofuran-4-carboxylic acid, V, W, X, Y, AK, AC, or AI. […] Colony numbers were increased above the control cultures (% BFU-E/Control) by anywhere from 25% to 230%. Each of the listed test compounds was tested in at least 5 different patients' blood and the differences were statistically significant.

γ-globin mRNA = γ-globin mRNA by RT-PCR in erythroid colonies cultured from cord blood; format: cell-based, human; details: for Concentration required: increase in fetal globin mRNA, erythroid colonies from cord blood; for fetal globin induction: 3 cultures; for No. of Positive responses: positive cultures/cultures tested
Procedure: γ-globin mRNA was analyzed in control and treated erythroid colonies cultured from cord blood, by RT-PCR.

myeloid colonies = experiment: Experiment 3: myeloid colonies in cord blood cultured without added growth factors; format: cell-based, human; details: no added growth factors
Procedure: as §1
Control colonies were established in cultures with no added growth factors to support myelopoiesis, in Iscove's Modified Dulbecco's Media (IMDM) methylcellulose media with charcoal-absorbed fetal bovine serum, beta mercaptoethanol, BSA.

Erythroid colonies = experiment: Example 7: erythroid colonies cultured with low Erythropoietin (0.5 U/ml) and compound Y enantiomers; format: cell-based, human
Procedure: The proliferative activity of compound Y—S enantiomer was tested in vitro in erythroid colonies cultured from peripheral blood of 3 sources of individuals: sickle cell anemia patients who were taking Hydroxyurea and have suppression of their endogenous erythropoiesis, a normal adult subject, and two cord blood samples. The erythroid cultures were established with low concentrations of Erythropoietin (0.5 U/ml) alone and with one or the other enantiomer of compound Y or the racemic mixture, or with high concentrations of EPO (3 Units/ml, =3000 mU/ml, 100-fold the normal physiologic concentration).

γ-globin gene = experiment: Related study: relative in vitro γ-globin gene induction; format: cell-based
Procedure: (§2) In a related study, the relative luciferase reporter gene induction, γ-globin gene induction, and F cell production was tested for several of the candidate compounds. The relative in vitro γ-globin gene reporter stimulation for the tested compounds was as follows: compound P>M>W=R=Y. The relative in vitro γ-globin gene induction for the tested compounds was as follows: P>R=M>Y>W>. The relative in vitro F-cell production was as follows: W>Y>R>M>P. The relative potency for F-cell production was as follows: R>M>Y>P>W.

γ-globin gene reporter = experiment: Related study: relative luciferase reporter gene induction; format: cell-based
Procedure: as §2

F-cell = experiment: Related study: in vitro F cell production; format: cell-based
Procedure: as §2

fetal globin mRNA = experiment: Fetal globin induction in phlebotomized anemic baboons; format: in vivo, baboon; details: Baboon 5002, 50 mg/kg
Procedure: Juvenile baboons were catheterized with venous and arterial catheters, and were phlebotomized a set amount of blood daily to maintain anemia with a hemoglobin level of 7.0-7.5 g/dl, from a baseline normal hemoglobin level of (12-13 g/dl). Normal saline was infused to replace the amount of blood withdrawn. This degree of phlebotomy exchanges the blood volume every 10-20 days.
Fetal globin mRNA was analyzed at baseline anemia before and following administration of test compounds. Globin chain protein synthesis confirmed the mRNA findings.
Following establishment of the stable level of anemia, a test compound was administered once/day, either intravenously or orally, and blood was withdrawn through the arterial catheter for analysis of globin mRNA or for analysis of the test compound in the plasma by HPLC-MS. Pharmacokinetic profiles were established from the plasma levels and oral bioavailability (comparing area under the curve between IV and oral plasma levels) was determined for the test compounds.
In anemic Baboon 5002, baseline fetal globin mRNA, assayed by RNAse protection, was 26% of non-alpha globin. With treatment with compound Y at 5 mg/kg/dose, fetal globin mRNA increased to 48% of non-alpha globin, an 85% increase over the baseline level. Treatment with compound AK at 50 mg/kg induced a 51% fetal globin mRNA increase, a 96% increase over the baseline level. […] The human equivalent dose is 20% of these doses, or 1 mg/kg, 10 mg/kg, or 8 mg/kg respectively. Thus, these 3 compounds are highly suitable for pharmaceutical compositions at doses that human patients can readily tolerate.

## O=C1CSc2ccc(C(=O)O)cc2N1 [T]
BFU-E
  numbers of BFU-E colonies compared to controls: increased numbers of colonies
[1]
  proportion of F-cells above the percentage in untreated controls: significant increases
γ globin promoter
  % γ globin promoter induction (above untreated control): ** (‘**’ indicates a 100%-200% increase)
[2]
  number of erythroid colonies compared to matched control cultures: increased the number of colonies

## COc1cc(OC)cc(Oc2ccccc2C(=O)O)c1 [O]
γ globin promoter
  % γ globin promoter induction (above untreated control): * (‘*’ indicates a 80-100% increase)

## O=C(O)Cn1ccc(=O)cc1 [AA]
γ globin promoter
  % γ globin promoter induction (above untreated control): ** (‘**’ indicates a 100%-200% increase)

## O=C(O)C=Cc1csc(Cl)c1 [3-(5-chlorothien-3-yl)acrylic acid]
BFU-E
  numbers of BFU-E colonies compared to controls: increased numbers of colonies
[1]
  proportion of F-cells above the percentage in untreated controls: significant increases
γ-globin mRNA
  Concentration required: 30 µM

## CCOc1ccc(C(=O)O)cc1 [AI]
BFU-E
  numbers of BFU-E colonies compared to controls: increased numbers of colonies
γ globin promoter
  % γ globin promoter induction (above untreated control): ** (‘**’ indicates a 100%-200% increase)
[2]
  number of erythroid colonies compared to matched control cultures: increased the number of colonies
Myeloid colonies
  production of myeloid colonies compared to untreated control: stimulated production of myeloid colonies

## Cn1cnnc1SCC(=O)O [AD]
γ globin promoter
  % γ globin promoter induction (above untreated control): ** (‘**’ indicates a 100%-200% increase)

## O=C(CC1(C(=O)O)CCCCC1)c1cccs1 [AF]
γ globin promoter
  % γ globin promoter induction (above untreated control): * (‘*’ indicates a 80-100% increase)

## O=C(O)/C=C/c1ccnc2ccccc12 [F]
BFU-E
  numbers of BFU-E colonies compared to controls: increased numbers of colonies
[1]
  proportion of F-cells above the percentage in untreated controls: significant increases
γ globin promoter
  % γ globin promoter induction (above untreated control): *** (‘***’ indicates an over 200% increase of γ globin promoter induction over untreated controls)

## O=C(O)c1ccc(-c2ccccc2[N+](=O)[O-])o1 [X]
[1]
  proportion of F-cells above the percentage in untreated controls: significant increases
γ globin promoter
  % γ globin promoter induction (above untreated control): ** (‘**’ indicates a 100%-200% increase)
[2]
  number of erythroid colonies compared to matched control cultures: increased the number of colonies
Myeloid colonies
  production of myeloid colonies compared to untreated control: stimulated production of myeloid colonies

## O=C(O)Cc1[nH]c(=O)cc(O)c1C(=O)O [S]
γ globin promoter
  % γ globin promoter induction (above untreated control): ** (‘**’ indicates a 100%-200% increase)

## O=C(O)C1CCc2snnc2C1 (stereo not drawn) [AB]
γ globin promoter
  % γ globin promoter induction (above untreated control): ** (‘**’ indicates a 100%-200% increase)

## COc1cc(OC)nc(S[C@H](C(=O)O)C(C)C)n1 [Y − S]
Erythroid colonies
  erythroid cell proliferation: stimulates erythroid cell proliferation significantly
Erythroid colonies; low EPO 0.5 U/ml
  range of more erythroid colonies than in the racemic mixture: 38-50%
Erythroid colonies; low EPO 0.5 U/ml, same concentration
  mean more erythroid colonies than in the racemic mixture: 45%
γ-globin mRNA
  fetal globin induction: did not induce fetal globin in 2 of (the same) 3 cultures
  Concentration required: 5 µM
  No. of Positive responses: 1/3

## Cc1cc(SCC(=O)O)cs1 [AH]
γ globin promoter
  % γ globin promoter induction (above untreated control): ** (‘**’ indicates a 100%-200% increase)

## O=C(O)CN1C(=O)S/C(=C/c2ccccc2O)C1=O [K]
γ globin promoter
  % γ globin promoter induction (above untreated control): * (‘*’ indicates a 80-100% increase)

## O=C(O)CSc1nnc(S)s1 [AE]
γ globin promoter
  % γ globin promoter induction (above untreated control): ** (‘**’ indicates a 100%-200% increase)

## EPO: Erythropoietin, high concentration 3 Units/ml in erythroid cultures
Erythroid colonies; high EPO 3 Units/ml
  mean more colonies than cultures with racemic mix or R enantiomer in low EPO: 35%
  range of more colonies than cultures with racemic mix or R enantiomer in low EPO: 25-45%

## COc1cc(OC)nc(S[C@@H](C(=O)O)C(C)C)n1 [Y + R]
Erythroid colonies
  erythroid cell proliferation: does not stimulate cell proliferation
γ-globin mRNA
  fetal globin induction: demonstrated fetal globin inducing action
  Concentration required: 5 µM
  No. of Positive responses: 2/3

## COc1cccc(SCC(=O)O)c1 [V]
[1]
  proportion of F-cells above the percentage in untreated controls: significant increases
γ-globin mRNA
  Concentration required: 5 µM
  No. of Positive responses: 6/6
γ globin promoter
  % γ globin promoter induction (above untreated control): ** (‘**’ indicates a 100%-200% increase)
[2]
  number of erythroid colonies compared to matched control cultures: increased the number of colonies

## O=C1CC(C(=O)O)Cc2ccsc21 (stereo not drawn) [AG]
γ globin promoter
  % γ globin promoter induction (above untreated control): ** (‘**’ indicates a 100%-200% increase)

## COc1ccc(C(N)CC(=O)O)cc1OC (stereo not drawn) [R]
γ-globin gene
  relative in vitro γ-globin gene induction (rank order): P>R=M>Y>W
γ-globin gene reporter
  relative in vitro γ-globin gene reporter stimulation (rank order): P>M>W=R=Y
BFU-E
  numbers of BFU-E colonies compared to controls: increased numbers of colonies
[1]
  proportion of F-cells above the percentage in untreated controls: significant increases
γ globin promoter
  % γ globin promoter induction (above untreated control): *** (‘***’ indicates an over 200% increase of γ globin promoter induction over untreated controls)
F-cell
  relative in vitro F-cell production (rank order): W>Y>R>M>P
  relative potency for F-cell production (rank order): R>M>Y>P>W

## O=C(O)CNc1ccc(SC(F)(F)F)cc1 [N]
[1]
  proportion of F-cells above the percentage in untreated controls: significant increases
γ globin promoter
  % γ globin promoter induction (above untreated control): *** (‘***’ indicates an over 200% increase of γ globin promoter induction over untreated controls)

## O=C(O)Cn1cc(Cl)c([N+](=O)[O-])n1 [AC]
γ globin promoter
  % γ globin promoter induction (above untreated control): ** (‘**’ indicates a 100%-200% increase)
[2]
  number of erythroid colonies compared to matched control cultures: increased the number of colonies

## Cc1cc2c(C(=O)O)cccc2o1 [2-methyl-1-benzofuran-4-carboxylic acid]
[1]
  proportion of F-cells above the percentage in untreated controls: significant increases
γ-globin mRNA
  Concentration required: 5 µM
  No. of Positive responses: 6/6
[2]
  number of erythroid colonies compared to matched control cultures: increased the number of colonies

## O=C(O)c1cccc(Cn2cc(Cl)cn2)c1 [Z]
BFU-E
  numbers of BFU-E colonies compared to controls: increased numbers of colonies
[1]
  proportion of F-cells above the percentage in untreated controls: significant increases
γ globin promoter
  % γ globin promoter induction (above untreated control): ** (‘**’ indicates a 100%-200% increase)

## O=[N+]([O-])c1cc(S(=O)(=O)O)ccc1F [AK]
γ globin promoter
  % γ globin promoter induction (above untreated control): ** (‘**’ indicates a 100%-200% increase)
[2]
  number of erythroid colonies compared to matched control cultures: increased the number of colonies
Fetal globin mRNA
  increase over the baseline level of fetal globin mRNA: 96%
Fetal globin mRNA; baseline 26%
  fetal globin mRNA (% of non-alpha globin): 51%

## COc1cc(OC)cc(SC(C(=O)O)C(C)C)c1 (stereo not drawn) [Q]
γ globin promoter
  % γ globin promoter induction (above untreated control): ** (‘**’ indicates a 100%-200% increase)

## O=C(O)CCC1(c2ccc(Cl)s2)CCCCC1 [AJ]
γ globin promoter
  % γ globin promoter induction (above untreated control): ** (‘**’ indicates a 100%-200% increase)
